Like-named read-outs stand apart in the source and are kept apart here.
Experiments:
AHR [1] = target: T1, AHR (Homo sapiens, UniProt P35869); assay: In vitro assay 1: antagonism in human cell line (AHR transactivation, firefly luciferase reporter, kynurenic acid prestimulated); format: cell-based; conditions: AHR Antagonism Human IC50 [M]
T1 construct: U87 MG glioblastoma cells (ATCC #HTB-14) endogenously expressing AHR; endogenous in cells; host or cells: U87 MG glioblastoma cells (ATCC #HTB-14)
T1 sequence (P35869 11-848): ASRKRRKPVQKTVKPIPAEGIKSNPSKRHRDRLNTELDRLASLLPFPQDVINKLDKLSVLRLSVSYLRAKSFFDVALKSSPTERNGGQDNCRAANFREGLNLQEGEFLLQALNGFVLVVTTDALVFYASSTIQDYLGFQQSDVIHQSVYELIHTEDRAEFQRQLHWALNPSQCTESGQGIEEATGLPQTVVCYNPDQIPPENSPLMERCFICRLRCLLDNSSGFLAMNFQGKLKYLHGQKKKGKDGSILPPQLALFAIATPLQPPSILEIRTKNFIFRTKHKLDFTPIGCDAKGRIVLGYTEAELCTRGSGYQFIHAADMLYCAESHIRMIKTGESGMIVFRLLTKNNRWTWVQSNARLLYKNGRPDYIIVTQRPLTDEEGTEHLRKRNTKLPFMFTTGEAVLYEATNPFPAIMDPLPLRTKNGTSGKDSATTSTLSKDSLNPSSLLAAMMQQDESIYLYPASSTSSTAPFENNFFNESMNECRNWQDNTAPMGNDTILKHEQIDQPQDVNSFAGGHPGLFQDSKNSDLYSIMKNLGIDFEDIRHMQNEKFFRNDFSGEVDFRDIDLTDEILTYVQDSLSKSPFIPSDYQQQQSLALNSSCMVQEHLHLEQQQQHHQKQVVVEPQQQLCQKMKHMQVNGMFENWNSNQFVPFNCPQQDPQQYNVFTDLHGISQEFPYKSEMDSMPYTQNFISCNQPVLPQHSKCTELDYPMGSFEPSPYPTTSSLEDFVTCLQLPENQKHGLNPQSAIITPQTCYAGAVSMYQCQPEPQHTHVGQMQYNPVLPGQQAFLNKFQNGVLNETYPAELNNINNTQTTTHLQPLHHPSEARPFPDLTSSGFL
In short: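 Antagonism is measured against kynurenic acid prestimulation in U87 MG glioblastoma cells carrying stable DRE-luciferase and Renilla reporters. Positive inhibition control: 150 μM kynurenic acid with 5 μM staurosporine. Values are normalized to controls; repeats are averaged or given as medians.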

AHR [2] = target: T2, AHR (Mus musculus, UniProt P30561); assay: In vitro assay 3: antagonism in mouse cell line (AHR transactivation, firefly luciferase reporter, kynurenic acid prestimulated); format: cell-based
T2 sequence (P30561 1-848 P471L/N533S/M589L): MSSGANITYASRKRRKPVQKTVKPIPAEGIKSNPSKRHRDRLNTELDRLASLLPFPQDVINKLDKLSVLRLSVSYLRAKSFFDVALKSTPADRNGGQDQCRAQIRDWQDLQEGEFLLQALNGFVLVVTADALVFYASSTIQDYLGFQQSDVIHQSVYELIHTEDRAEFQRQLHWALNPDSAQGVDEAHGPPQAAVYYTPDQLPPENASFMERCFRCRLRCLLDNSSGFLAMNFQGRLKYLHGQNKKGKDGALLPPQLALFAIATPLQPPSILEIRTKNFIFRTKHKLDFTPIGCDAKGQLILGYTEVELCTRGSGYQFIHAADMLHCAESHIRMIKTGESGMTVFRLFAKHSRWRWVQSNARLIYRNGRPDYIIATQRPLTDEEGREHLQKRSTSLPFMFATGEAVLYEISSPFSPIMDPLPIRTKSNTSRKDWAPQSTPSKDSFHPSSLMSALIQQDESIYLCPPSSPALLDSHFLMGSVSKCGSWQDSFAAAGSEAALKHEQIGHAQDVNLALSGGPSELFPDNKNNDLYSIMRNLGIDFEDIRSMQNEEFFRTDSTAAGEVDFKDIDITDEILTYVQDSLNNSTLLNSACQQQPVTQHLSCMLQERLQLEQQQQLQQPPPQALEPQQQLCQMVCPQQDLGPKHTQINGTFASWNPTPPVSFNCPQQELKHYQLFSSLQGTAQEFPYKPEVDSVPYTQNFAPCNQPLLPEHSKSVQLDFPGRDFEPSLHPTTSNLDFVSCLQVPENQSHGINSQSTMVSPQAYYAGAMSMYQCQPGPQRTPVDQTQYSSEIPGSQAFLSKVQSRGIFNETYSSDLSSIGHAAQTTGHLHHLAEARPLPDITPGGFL
In short: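 Luminescence from an AHR-dependent DRE-luciferase reporter, stably integrated in mouse cells, quantifies blockade of kynurenic acid-driven activation. Unstimulated cells mark maximal inhibition; normalization uses both control types, and multiply tested compounds carry mean or median values.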

[3] = mouse Hepa 1c1c7 cells, 200 μM kynurenic acid, 20 hours, read-out: AHR Antagonism Mouse IC50
[4] = Hepa 1c1c7 cells, 200 μM kynurenic acid, 20 hours, firefly luciferase reporter, read-out: AHR Antagonism Mouse IC50

Row | SMILES | IC50 (AHR [1]) [M] | IC50 (AHR [2]; [3]) [nM] | IC50 (AHR [1]; firefly luciferase reporter) [M] | IC50 (AHR [2]; [4]) [nM] | IC50 (AHR [2]; read-out: AHR Antagonism Mouse IC50, mouse Hepa 1c1c7 cells, 200 μM kynurenic acid, 20 hours) [nM]
1 | O=C1NCCCC[C@H]1Nc1nc2c(Cl)cccc2c2nc(-c3cccc(F)c3)nn12 [Example 555, (3R)-3-{[7-chloro-2-(3-fluorophenyl)[1,2,4]triazolo[1,5-c]quianzolin-5-yl]amino}azepan-2-one] | 1.82e-08 | 6.92 | – | – | –
2 | CC[C@@H](Nc1nc2ccccc2c2nc(-c3cc(Br)ccc3OC(F)(F)F)nn12)C(N)=O [Example 507, (2R)-2-({2-[5-bromo-2-(trifluoromethoxy)phenyl][1,2,4]triazolo[1,5-c]quinazolin-5-yl}amino)butanamide] | 3.44e-07 | 41.2 | – | – | –
3 | O=C1NCCNC[C@H]1Nc1nc2ccccc2c2nc(-c3cccc(F)c3)nn12 [Example 261, (6R)-6-{[2-(3-fluorophenyl)[1,2,4]triazolo[1,5-c]quinazolin-5-yl]amino}-1,4-diazepan-5-one] | 7.39e-08 | 46.6 | – | – | –
4 | COc1ccc(-c2nc3c4ccccc4nc(N[C@H](C)C(=O)NCC(C)(C)N)n3n2)cc1 [Example 784, N-(2-amino-2-methylpropyl)-N^2-[2-(4-methoxyphenyl)[1,2,4]triazolo[1,5-c]quinazolin-5-yl]-D-alaninamide] | – | – | 9.16e-08 | 48.1 | –
5 | O=C1NCCCC[C@H]1Nc1nc2ccccc2c2nc(-c3cccnc3F)nn12 [Example 640, (3R)-3-{[2-(2-fluoropyridin-3-yl)[1,2,4]triazolo[1,5-c]quinazolin-5-yl]amino}azepan-2-one] | 2.54e-08 | 30.7 | – | – | –
6 | CC(C)c1cccc2c1nc(N[C@@H]1CCCCNC1=O)n1nc(-c3ccc(F)cc3)nc21 [Example 393, (3R)-3-{[2-(4-Fluorophenyl)-7-(propan-2-yl)[1,2,4]triazolo[1,5-c]quinazolin-5-yl]amino}azepan-2-one] | 4.34e-08 | – | – | – | 34.2
7 | COc1ccc(-c2nc3c4cccc(S(C)(=O)=O)c4nc(N[C@@H]4CCCCNC4=O)n3n2)cc1 [Example 842, (3R)-3-{[7-(methanesulfonyl)-2-(4-methoxyphenyl)[1,2,4]triazolo[1,5-c]quinazolin-5-yl]amino}azepan-2-one] | – | – | 4.03e-10 | 9.92 | –
8 | O=C1NCC[C@H]1Nc1nc2ccccc2c2nc(-c3cccc(OC(F)(F)F)c3)nn12 [Example 310, (3R)-3-({2-[3-(trifluoromethoxy)phenyl][1,2,4]triazolo[1,5-c]quinazolin-5-yl}amino)pyrrolidin-2-one] | 9.98e-08 | 60.7 | – | – | –
9 | Cc1nn(C)cc1-c1nc2c3cccc(Cl)c3nc(N[C@@H]3CCCCNC3=O)n2n1 [Example 821, (3R)-3-{[7-chloro-2-(1,3-dimethyl-1H-pyrazol-4-yl)[1,2,4]triazolo[1,5-c]quinazolin-5-yl]amino}azepan-2-one] | – | – | 2.98e-10 | 0.739 | –
10 | CS(=O)(=O)c1ccc(-c2nc3c4ccccc4nc(N[C@@H]4CCNC4=O)n3n2)cc1 [Example 373, (3R)-3-({2-[4-(methanesulfonyl)phenyl][1,2,4]triazolo[1,5-c]quinazolin-5-yl}amino)pyrrolidin-2-one] | 6.38e-07 | 514 | – | – | –
11 | O=C1NCC[C@H]1Nc1nc2ccccc2c2nc(-c3ccncc3F)nn12 [Example 483, (3R)-3-{[2-(3-fluoropyridin-4-yl)[1,2,4]triazolo[1,5-c]quinazolin-5-yl]amino}pyrrolidin-2-one] | 1.45e-06 | 2170 | – | – | –
12 | CC(C)n1cc(-c2nc3c4ccccc4nc(N[C@@H]4CCCCNC4=O)n3n2)cn1 [Example 195, (3R)-3-({2-[1-(propan-2-yl)-1H-pyrazol-4-yl][1,2,4]triazolo[1,5-c]quinazolin-5-yl]amino)azepan-2-one] | 3.06e-09 | 2.55 | – | – | –
13 | COc1ccc(-c2nc3c4cccc(Br)c4nc(N[C@H](C)C(=O)N4CC5(CN(C(=O)OC(C)(C)C)C5)C4)n3n2)cc1 [Example 920, tert-butyl 6-{N-[7-bromo-2-(4-methoxyphenyl)[1,2,4]triazolo[1,5-c]quinazolin-5-yl]-D-alanyl}-2,6-diazaspiro[3.3]heptane-2-carboxylate] | – | – | 7.45e-09 | 11 | –
14 | O=C1NCCCC[C@H]1Nc1nc2c(C(F)(F)F)cccc2c2nc(-c3ccc(F)cc3)nn12 [Example 203, (3R)-3-{[2-(4-fluorophenyl)-7-(trifluoromethyl)[1,2,4]triazolo[1,5-c]quinazolin-5-yl]amino}azepan-2-one] | 6.29e-10 | 0.48 | – | – | –
15 | N#Cc1ccc(-c2nc3c4ccccc4nc(N[C@H]4CCCCNC4=O)n3n2)cc1 [Example 437, 4-(5-{[(3S)-2-oxoazepan-3-yl]amino}[1,2,4]triazolo[1,5-c]quinazolin-2-yl)benzonitrile] | 3.65e-08 | 7.87 | – | – | –
16 | O=C1NCCNC[C@H]1Nc1nc2c(C(F)(F)F)cccc2c2nc(-c3cccc(F)c3)nn12 [Example 424, (6R)-6-{[2-(3-fluorophenyl)-7-(trifluoromethyl)[1,2,4]triazolo[1,5-c]quinazolin-5-yl]amino}-1,4-diazepan-5-one] | 5.89e-10 | 1.69 | – | – | –
17 | COc1ccc(-c2nc3c4cccc(Br)c4nc(N[C@H](C)C(=O)NCCN4CCNCC4)n3n2)cc1 [Example 992, N^2-[7-bromo-2-(4-methoxyphenyl)[1,2,4]triazolo[1,5-c]quinazolin-5-yl]-N-[2-(piperazin-1-yl)ethyl]-D-alaninamide-hydrogen chloride (1/2)] | – | – | 3.94e-09 | 7.74 | –
18 | O=C1NCCCC[C@H]1Nc1nc2c(Br)cccc2c2nc(-c3ccc(Cl)cc3OC(F)(F)F)nn12 [Example 571, (3R)-3-({7-bromo-2-[4-chloro-2-(trifluoromethoxy)phenyl][1,2,4]triazolo[1,5-c]quinazolin-5-yl}amino)azepan-2-one] | > 2e-05 | 10.1 | – | – | –
19 | COc1cccc(-c2nc3c4ccccc4nc(NC4CCN(C)C4=O)n3n2)c1 (single isomer, unassigned) [Example 123, 3-{[2-(3-methoxyphenyl)[1,2,4]triazolo[1,5-c]quinazolin-5-yl]amino}-1-methylpyrrolidin-2-one] | 3.65e-07 | 1870 | – | – | –
20 | COc1ccc(-c2nc3c4ccccc4nc(NC4CCCCCNC4=O)n3n2)cc1 (centres unmarked) [Example 433, 3-{[2-(4-methoxyphenyl)[1,2,4]triazolo[1,5-c]quinazolin-5-yl]amino}azocan-2-one] | 1.64e-09 | 0.647 | – | – | –
21 | COc1cccc(-c2nc3c4ccccc4nc(N[C@H](CO)C(=O)O)n3n2)c1 [Example 91, N-[2-(3-methoxyphenyl)[1,2,4]triazolo[1,5-c]quinazolin-5-yl]-D-serine] | > 2e-05 | > 20000 | – | – | –
22 | COc1ccc(-c2nc3c4cccc(S(C)(=O)=O)c4nc(N[C@@H]4CNCCNC4=O)n3n2)cc1 [Example 936, (6R)-6-{[7-(methanesulfonyl)-2-(4-methoxyphenyl)[1,2,4]triazolo[1,5-c]quinazolin-5-yl]amino}-1,4-diazepan-5-one] | – | – | 1.27e-08 | 66.9 | –

Source: patent US20230113037A1 (Bayer Aktiengesellschaft, priority 2019, published 2023)
